In US20240199546A1, “INHIBITORS OF SOLUTE CARRIER FAMILY 6A MEMBER 19 (SLC6A19) AND METHODS OF USE THEREOF” (Maze Therapeutics, Inc., priority 2022, published 2024):

Key:
[1] = molecular target: T1, human SLC6A19 and TMEM27 (Homo sapiens, UniProt Q695T7); experiment: 13C6,15N-isoleucine uptake in CHO cells with doxycycline-inducible expression of human SLC6A19 and TMEM27, RapidFire mass spectrometry (Example B-2); assay type: cell-based; settings: read-out: SLC6A19_RapidFire Uptake Assay IC50
T1 construct: expressed in transfected cells
T1 sequence (Q695T7 1-634): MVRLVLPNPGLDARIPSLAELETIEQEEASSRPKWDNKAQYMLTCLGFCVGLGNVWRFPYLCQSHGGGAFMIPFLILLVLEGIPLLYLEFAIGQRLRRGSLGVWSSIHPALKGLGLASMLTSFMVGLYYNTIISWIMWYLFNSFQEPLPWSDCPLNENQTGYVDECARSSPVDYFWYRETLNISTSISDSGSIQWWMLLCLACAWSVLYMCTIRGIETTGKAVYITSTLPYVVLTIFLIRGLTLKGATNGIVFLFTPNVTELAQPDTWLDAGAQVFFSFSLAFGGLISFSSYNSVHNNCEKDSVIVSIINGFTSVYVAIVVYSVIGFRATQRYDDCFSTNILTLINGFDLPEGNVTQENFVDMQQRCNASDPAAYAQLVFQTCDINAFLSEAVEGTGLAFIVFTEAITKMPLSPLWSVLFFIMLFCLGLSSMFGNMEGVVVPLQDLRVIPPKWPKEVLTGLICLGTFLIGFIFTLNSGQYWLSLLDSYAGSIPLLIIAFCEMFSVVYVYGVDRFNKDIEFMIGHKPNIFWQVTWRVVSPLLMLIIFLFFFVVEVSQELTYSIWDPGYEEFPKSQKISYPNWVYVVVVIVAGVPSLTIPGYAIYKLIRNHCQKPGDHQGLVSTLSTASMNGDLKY
T1 sequence (Q9HBJ8 15-222 partner): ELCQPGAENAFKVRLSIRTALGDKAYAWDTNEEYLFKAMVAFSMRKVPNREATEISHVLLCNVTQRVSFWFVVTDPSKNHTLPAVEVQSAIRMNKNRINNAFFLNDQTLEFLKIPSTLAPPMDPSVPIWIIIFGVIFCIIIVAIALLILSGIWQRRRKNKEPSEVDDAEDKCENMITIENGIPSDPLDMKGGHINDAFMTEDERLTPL
How it was run: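 Read-out is RapidFire mass-spec peak area of 13C6,15N-isoleucine taken up over 20 min at 37 °C, after 20 min compound pre-exposure in pH 7.2 HEPES-buffered saline. Cells: doxycycline-induced CHO co-expressing human SLC6A19 and TMEM27; compounds as duplicate 10-point 2-fold dilutions, positive control setting 0% activity.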

[2] = molecular target: T1, human SLC6A19 and TMEM27; experiment: Radiolabelled (3H) leucine uptake in CHO cells with doxycycline-inducible expression of human SLC6A19 and TMEM27 (Example B-1); assay type: cell-based; settings: CHO cells with doxycycline-inducible expression of human SLC6A19 and TMEM27, read-out: SLC6A19_Radioligand Uptake Assay IC50
How it was run: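 CHO cells were induced with doxycycline for 18 h at 37 °C, washed in HBSS, then exposed to compounds for 1 h: 8-point, 3-fold dilutions in duplicate, 0.5% DMSO final. Uptake measured by scintillation counting after 2 h shaking. Activity normalized with positive control as 0% and DMSO as 100%.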

Structure (SMILES) | IC50 [1] [nM] | IC50 [2] [nM]
CC1(C(=O)NCc2cc3cc(Cl)c(OCc4c(F)ccnc4Cl)cc3[nH]2)CC1 [Compound 351, N-((5-chloro-6-((2-chloro-4-fluoropyridin-3-yl)methoxy)-1H-indol-2-yl)methyl)-1-methylcyclopropane-1-carboxamide] | 1540 | 2470
CC1(C(=O)NCc2cc3cc(Cl)c(OCc4cc(C(F)(F)F)on4)cc3[nH]2)CC1 [Compound 352, N-((5-chloro-6-((5-(trifluoromethyl)isoxazol-3-yl)methoxy)-1H-indol-2-yl)methyl)-1-methylcyclopropane-1-carboxamide] | 469 | 67.5
CC1CN(C(=O)NCc2cc3cc(F)c(OCc4cscn4)cc3[nH]2)C1 [Compound 357, N-((5-fluoro-6-(thiazol-4-ylmethoxy)-1H-indol-2-yl)methyl)-3-methylazetidine-1-carboxamide] | 434 | 413
CN(C(=O)NCc1cc2cc(Cl)c(OCc3ccon3)cc2[nH]1)C1CC1 [Compound 379, 3-((5-chloro-6-(isoxazol-3-ylmethoxy)-1H-indol-2-yl)methyl)-1-cyclopropyl-1-methylurea] | 240 | 382
CC1CN(C(=O)NCc2cc3cc(F)c(OCc4ccon4)cc3[nH]2)C1 [Compound 389, N-((5-fluoro-6-(isoxazol-3-ylmethoxy)-1H-indol-2-yl)methyl)-3-methylazetidine-1-carboxamide] | 485 | 353
CC1CN(C(=O)NCc2cc3cc(Cl)c(OCc4ccon4)cc3[nH]2)C1 [Compound 390, N-((5-chloro-6-(isoxazol-3-ylmethoxy)-1H-indol-2-yl)methyl)-3-methylazetidine-1-carboxamide] | 402 | 340
CC1(C(=O)NCc2cc3cc(Cl)c(OCc4cc5ccccn5n4)cc3[nH]2)CC1 [Compound 392, N-((5-chloro-6-(pyrazolo[1,5-a]pyridin-2-ylmethoxy)-1H-indol-2-yl)methyl)-1-methylcyclopropane-1-carboxamide] | 1620 | 2830
CC1(C(=O)NCc2cc3cc(Cl)c(OCCC4CC(F)(F)C4)cc3[nH]2)CC1 [Compound 393, N-((5-chloro-6-(2-(3,3-difluorocyclobutyl)ethoxy)-1H-indol-2-yl)methyl)-1-methylcyclopropane-1-carboxamide] | 781 | 1460
O=C(NCc1cc2cc(F)c(OCc3ccno3)cc2[nH]1)N1CCC1 [Compound 401, N-((5-fluoro-6-(isoxazol-5-ylmethoxy)-1H-indol-2-yl)methyl)azetidine-1-carboxamide] | 534 | 342
O=C(NCc1cc2cc(Cl)c(OCc3cocn3)cc2[nH]1)N1CCC1 [Compound 403, N-((5-chloro-6-(oxazol-4-ylmethoxy)-1H-indol-2-yl)methyl)azetidine-1-carboxamide] | 519 | 407
Cn1ncc(COc2cc3[nH]c(CNC(=O)N4CCC4)cc3cc2Cl)n1 [Compound 405, N-((5-chloro-6-((2-methyl-2H-1,2,3-triazol-4-yl)methoxy)-1H-indol-2-yl)methyl)azetidine-1-carboxamide] | 367 | 305
O=C(NCc1cc2cc(Cl)c(NCc3ccon3)cc2[nH]1)N1CCC1 [Compound 407, N-((5-chloro-6-((isoxazol-3-ylmethyl)amino)-1H-indol-2-yl)methyl)azetidine-1-carboxamide] | 593 | 619
Cc1nc(COc2cc3[nH]c(CNC(=O)N4CCC4)cc3cc2Cl)co1 [Compound 408, N-((5-chloro-6-((2-methyloxazol-4-yl)methoxy)-1H-indol-2-yl)methyl)azetidine-1-carboxamide] | 498 | 478
Cn1ncc(COc2cc3[nH]c(CNC(=O)N4CCC4)cc3cc2F)n1 [Compound 409, N-((5-fluoro-6-((2-methyl-2H-1,2,3-triazol-4-yl)methoxy)-1H-indol-2-yl)methyl)azetidine-1-carboxamide] | 2290 | 1180
Cn1ncc(COc2cc3[nH]c(CNC(=O)N4CCCC4)cc3cc2F)n1 [Compound 410, N-((5-fluoro-6-((2-methyl-2H-1,2,3-triazol-4-yl)methoxy)-1H-indol-2-yl)methyl)pyrrolidine-1-carboxamide] | 578 | 386
O=C(NCc1cc2cc(Cl)c(NCc3cscn3)cc2[nH]1)N1CCCC1 [Compound 414, N-((5-chloro-6-((thiazol-4-ylmethyl)amino)-1H-indol-2-yl)methyl)pyrrolidine-1-carboxamide] | 281 | 339
CCc1c(CNC(=O)N2CCC2)[nH]c2cc(OCc3cscn3)c(Cl)cc12 [Compound 424, N-((5-chloro-3-ethyl-6-(thiazol-4-ylmethoxy)-1H-indol-2-yl)methyl)azetidine-1-carboxamide] | 491 | 1260

Further lines, results first:

IC50 [1] [nM] | IC50 [2] [nM] | Structure (SMILES)
175 | 290 | O=C(NCc1cc2cc(Cl)c(OCc3cccc(F)n3)cc2[nH]1)N1CCC1 [Compound 402, N-((5-chloro-6-((6-fluoropyridin-2-yl)methoxy)-1H-indol-2-yl)methyl)azetidine-1-carboxamide]
147 | 268 | Cc1cc(COc2cc3[nH]c(CNC(=O)N4CCC4)cc3cc2Cl)on1 [Compound 404, N-((5-chloro-6-((3-methylisoxazol-5-yl)methoxy)-1H-indol-2-yl)methyl)azetidine-1-carboxamide]
172 | 347 | Cn1ncc(COc2cc3[nH]c(CNC(=O)N4CCCC4)cc3cc2Cl)n1 [Compound 406, N-((5-chloro-6-((2-methyl-2H-1,2,3-triazol-4-yl)methoxy)-1H-indol-2-yl)methyl)pyrrolidine-1-carboxamide]
217 | 313 | Cc1nc(COc2cc3[nH]c(CNC(=O)N4CCCC4)cc3cc2Cl)co1 [Compound 411, N-((5-chloro-6-((2-methyloxazol-4-yl)methoxy)-1H-indol-2-yl)methyl)pyrrolidine-1-carboxamide]
154 | 289 | O=C(NCc1cc2cc(Cl)c(CCc3ccon3)cc2[nH]1)N1CCCC1 [Compound 412, N-((5-chloro-6-(2-(isoxazol-3-yl)ethyl)-1H-indol-2-yl)methyl)pyrrolidine-1-carboxamide]
239 | 276 | O=C(NCc1cc2cc(Cl)c(NCc3ccon3)cc2[nH]1)N1CCCC1 [Compound 413, N-((5-chloro-6-((isoxazol-3-ylmethyl)amino)-1H-indol-2-yl)methyl)pyrrolidine-1-carboxamide]
93.4 | 384 | O=C(NCc1cc2cc(OC(F)(F)F)c(OCc3cscn3)cc2[nH]1)N1CCCC1 [Compound 415, N-((6-(thiazol-4-ylmethoxy)-5-(trifluoromethoxy)-1H-indol-2-yl)methyl)pyrrolidine-1-carboxamide]
159 | 435 | O=C(NCc1cc2cc(OC(F)(F)F)c(CCc3cscn3)cc2[nH]1)N1CCCC1 [Compound 419, N-((6-(2-(thiazol-4-yl)ethyl)-5-(trifluoromethoxy)-1H-indol-2-yl)methyl)pyrrolidine-1-carboxamide]
131 | 359 | O=C(NCc1cc2cc(OC(F)(F)F)c(OCc3cscn3)cc2[nH]1)N1CCC1 [Compound 421, N-((6-(thiazol-4-ylmethoxy)-5-(trifluoromethoxy)-1H-indol-2-yl)methyl)azetidine-1-carboxamide]
115 | 315 | O=C(NCc1cc2cc(Cl)c(OCc3cccc(F)n3)cc2[nH]1)N1CCCC1 [Compound 425, N-((5-chloro-6-((6-fluoropyridin-2-yl)methoxy)-1H-indol-2-yl)methyl)pyrrolidine-1-carboxamide]
217 | 351 | Cc1coc(COc2cc3[nH]c(CNC(=O)N4CCCC4)cc3cc2Cl)n1 [Compound 426, N-((5-chloro-6-((4-methyloxazol-2-yl)methoxy)-1H-indol-2-yl)methyl)pyrrolidine-1-carboxamide]
68.6 | 137 | O=C(NCc1cc2cc(F)c(OCc3cscn3)cc2[nH]1)C1CCC1 [Compound 430, N-((5-fluoro-6-(thiazol-4-ylmethoxy)-1H-indol-2-yl)methyl)cyclobutanecarboxamide]
